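Method: 48-hour compound exposure of cells in 96-well plates, five concentrations, linear interpolation of endpoints. The concentration for 50% growth inhibition is given as GI50. Definition used: TGI = concentration required for complete inhibition of growth.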
Tests used:
Assay in all cases: growth of human tumour cells (NCI), 48 h
[1] = test system: 786-0 renal
[2] = test system: A498 renal
[3] = test system: A549 NSCLC
[4] = test system: ACHN renal
[5] = test system: BT-549 breast
[6] = test system: CAKI-1 renal
[7] = test system: CCRF-CEM leukemia
[8] = test system: COLO 205 colon
[9] = test system: DU-145 prostate
[10] = test system: EKVX NSCLC
[11] = test system: HCC-2998 colon
[12] = test system: HCT-116 colon
[13] = test system: HCT-15 colon
[14] = test system: HL-60(TB) leukemia
[15] = test system: HOP-62 NSCLC
[16] = test system: HOP-92 NSCLC
[17] = test system: HS 578T breast
[18] = test system: HT29 colon
[19] = test system: IGROV1 ovarian
[20] = test system: K-562 leukemia
[21] = test system: KM12 colon
[22] = test system: LOX IMVI melanoma
[23] = test system: M14 melanoma
[24] = test system: MALME-3M melanoma
[25] = test system: MCF7 breast
[26] = test system: MDA-MB-231 breast
[27] = test system: MDA-MB-435
[28] = test system: MOLT-4 leukemia
[29] = test system: NCI-H226 lung
[30] = test system: NCI-H23 lung
[31] = test system: NCI-H460 lung
[32] = test system: NCI-H522 lung
[33] = test system: NCI/ADR-RES ovarian
[34] = test system: OVCAR-3 ovarian
[35] = test system: OVCAR-4 ovarian
[36] = test system: OVCAR-5 ovarian
[37] = test system: OVCAR-8 ovarian
[38] = test system: PC-3 prostate
[39] = test system: RPMI-8226 leukemia
[40] = test system: RXF 393 renal
[41] = test system: SF-268 CNS
[42] = test system: SF-295 CNS
[43] = test system: SF-539 CNS
[44] = test system: SK-MEL-2 melanoma
[45] = test system: SK-MEL-28 melanoma
[46] = test system: SK-MEL-5 melanoma
[47] = test system: SK-OV-3 ovarian
[48] = test system: SN12C renal
[49] = test system: SNB-19 CNS
[50] = test system: SW-620 colon
[51] = test system: T-47D breast
[52] = test system: TK-10 renal
[53] = test system: U251 CNS
[54] = test system: UACC-257 melanoma
[55] = test system: UACC-62 melanoma
[56] = test system: UO-31 renal

SMILES: CCOc1cc2ncc(C#N)c(Nc3ccc(F)c(Cl)c3)c2cc1NC(=O)CC1CCSS1 (configuration not stated)
- GI50 [1]: 1840 nM
- TGI [1]: 12900 nM
- GI50 [2]: 3050 nM
- TGI [2]: 11400 nM
- GI50 [3]: 616 nM
- TGI [3]: 1160 nM
- GI50 [4]: 429 nM
- TGI [4]: 1150 nM
- GI50 [5]: 1500 nM
- TGI [5]: 7460 nM
- GI50 [6]: 979 nM
- TGI [6]: 4590 nM
- GI50 [7]: 792 nM
- TGI [7]: 2060 nM
- GI50 [8]: 982 nM
- TGI [8]: 3390 nM
- GI50 [9]: 580 nM
- TGI [9]: 1280 nM
- GI50 [10]: 476 nM
- TGI [10]: 1930 nM
- GI50 [11]: 569 nM
- TGI [11]: 1100 nM
- GI50 [12]: 630 nM
- TGI [12]: 1270 nM
- GI50 [13]: 649 nM
- TGI [13]: 1700 nM
- GI50 [14]: 930 nM
- TGI [14]: 4000 nM
- GI50 [15]: 533 nM
- TGI [15]: 1160 nM
- GI50 [16]: 3240 nM
- TGI [16]: 13700 nM
- GI50 [17]: 1390 nM
- TGI [17]: 11700 nM
- GI50 [18]: 603 nM
- TGI [18]: 1200 nM
- GI50 [19]: 392 nM
- TGI [19]: 1630 nM
- GI50 [20]: 881 nM
- TGI [20]: 2290 nM
- GI50 [21]: 563 nM
- TGI [21]: 1130 nM
- GI50 [22]: 579 nM
- TGI [22]: 1170 nM
- GI50 [23]: 572 nM
- TGI [23]: 1330 nM
- GI50 [24]: 1640 nM
- TGI [24]: 6410 nM
- GI50 [25]: 694 nM
- TGI [25]: 1900 nM
- GI50 [26]: 833 nM
- TGI [26]: 2000 nM
- GI50 [27]: 597 nM
- TGI [27]: 1230 nM
- GI50 [28]: 748 nM
- TGI [28]: 1890 nM
- GI50 [29]: 2110 nM
- TGI [29]: 7400 nM
- GI50 [30]: 1120 nM
- TGI [30]: 4550 nM
- GI50 [31]: 676 nM
- TGI [31]: 1410 nM
- GI50 [32]: 786 nM
- TGI [32]: 4700 nM
- GI50 [33]: 751 nM
- TGI [33]: 2040 nM
- GI50 [34]: 717 nM
- TGI [34]: 2080 nM
- GI50 [35]: 663 nM
- TGI [35]: 2350 nM
- GI50 [36]: 2100 nM
- TGI [36]: 13500 nM
- GI50 [37]: 809 nM
- TGI [37]: 1920 nM
- GI50 [38]: 629 nM
- TGI [38]: 1210 nM
- GI50 [39]: 1640 nM
- TGI [39]: 33300 nM
- GI50 [40]: 1130 nM
- TGI [40]: 3970 nM
- GI50 [41]: 740 nM
- TGI [41]: 2230 nM
- GI50 [42]: 1650 nM
- TGI [42]: 6670 nM
- GI50 [43]: 5000 nM
- TGI [43]: 17400 nM
- GI50 [44]: 697 nM
- TGI [44]: 2000 nM
- GI50 [45]: 659 nM
- TGI [45]: 1530 nM
- GI50 [46]: 3240 nM
- TGI [46]: 7230 nM
- GI50 [47]: 509 nM
- TGI [47]: 990 nM
- GI50 [48]: 880 nM
- TGI [48]: 2500 nM
- GI50 [49]: 1980 nM
- TGI [49]: 12300 nM
- GI50 [50]: 1040 nM
- TGI [50]: 3570 nM
- GI50 [51]: 1380 nM
- TGI [51]: 6920 nM
- GI50 [52]: 556 nM
- TGI [52]: 1480 nM
- GI50 [53]: 1100 nM
- TGI [53]: 3460 nM
- GI50 [54]: 1960 nM
- TGI [54]: 6920 nM
- GI50 [55]: 1970 nM
- TGI [55]: 7280 nM
- GI50 [56]: 395 nM
- TGI [56]: 955 nM

Reference: PubChem BioAssay (NCI)
